In US6077845A, “Acridin derivatives” (Gruenenthal GmbH, priority 1998, dated 2000):
Structures can show the parent of a compound that is named as a salt.

The compounds below were run against T1, δ-opiate receptor (Rattus norvegicus, UniProt P33533) (assay: δ-Opiate receptor binding ([3H]-2-D-Ala-deltorphin II displacement, rat brain membrane homogenate)). Settings: 1 nmole/l [3H]-2-D-Ala-deltorphin II, 90 minutes at 37° C., pH 7.4, mean ± standard deviation of three independent tests, Ki from IC50 by Cheng-Prussoff.
T1 construct: from tissue; host or cells: rat brain (male Wistar) without cerebellum and medulla oblongata, membrane homogenate
Set-up: species or system rat (male Wistar)
Method: δ-Opiate receptor binding investigations
Tests to determine the affinity of the compounds of formula I according to the invention for δ-opiate receptors were performed on meninx homogenates (homogenates of rat's brain, without the cerebellum and medulla oblongata, taken from male Wistar rats).
For this purpose, freshly prepared rat brains were each homogenised, while being cooled in ice, in 50 mmoles/l Tris-HCl (pH 7.4) and were centrifuged for 10 minutes at 5000 g and […]. After decantation and after rejecting the supernatant liquor, followed by renewed take-up and homogenization of the membrane sediment in 50 mmoles/l Tris-HCl (pH 7.4), the homogenate was subsequently centrifuged for 20 minutes at 20,000 g and […]. This washing step was repeated again. Thereafter, the supernatant liquor was decanted and the membrane sediment was homogenized in cold 50 mmoles/l Tris-HCl, 20% glycerol (w/v), 0.01% bacitracin (w/v) (pH 7.4) and aliquots thereof were frozen until required for testing. For the receptor binding tests, the aliquots were thawed and were diluted 1:10 with the binding test buffer. A solution of […] MgCl2 (pH 7.4), supplemented by 0.1 (w/v) bovine serum albumin, was used as the buffer in the binding tests; 1 nmole/l [^3 H]-2-D-Ala-deltorphin II was used as the radioactive ligand. The proportion of non-specific binding was determined in the presence of 10 μmoles/l naloxon.
In further batches, the compounds according to the invention were added in a series of concentrations and the displacement of the radioactive ligand from its specific binding site was determined. The batches concerned, which were each tested in triplicate, were incubated for 90 minutes at 37° C. and were subsequently harvested in order to determine the radioactive ligand which was bound to the membrane homogenate by filtration through a glass fibre filter (GF/B). The glass fiber filter discs were dried, and the radioactivity thereof was measured in a β-counter after adding a scintillator.
The affinity of the compounds according to the invention for the δ-opiate receptor was calculated as the IC50 value according to the law of mass action, by means of nonlinear regression. Ki values were calculated from the IC50 values using the Cheng-Prussoff equation. The Ki values in Table 1 are given as the mean value±standard deviation of three tests which were independent of each other.

T1 sequence (P33533 whole entry): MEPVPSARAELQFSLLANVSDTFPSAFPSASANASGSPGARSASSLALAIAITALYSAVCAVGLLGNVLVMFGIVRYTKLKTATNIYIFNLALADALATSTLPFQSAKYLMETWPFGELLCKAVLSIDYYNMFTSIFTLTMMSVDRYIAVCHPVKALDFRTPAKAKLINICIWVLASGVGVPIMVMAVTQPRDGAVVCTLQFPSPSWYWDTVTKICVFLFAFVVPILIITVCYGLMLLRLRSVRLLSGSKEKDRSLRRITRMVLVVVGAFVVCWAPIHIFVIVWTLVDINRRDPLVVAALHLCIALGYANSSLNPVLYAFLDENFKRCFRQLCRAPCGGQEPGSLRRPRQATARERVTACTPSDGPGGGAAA

In order of rising Ki:
1. CN(C)CC1=C(c2cccc(O)c2)c2cc3ccccc3nc2CC1 [[3-(2-dimethylaminomethyl-3,4-dihydro-acridin-1-yl)]-phenol hydrochloride]  3.84 nM
2. CN(C)C[C@H]1CCc2nc3ccccc3cc2[C@@H]1c1cccc(O)c1 (relative stereo) [rac-trans-[3-(2-dimethylaminomethyl-1,2,3,4-tetrahydro-acridin-1-yl)]-phenol hydrochloride]  4.17 nM
3. CN(C)CC1=C(c2cccc(O)c2)c2cc3ccccc3nc2CC1(C)C [3-(2-dimethylaminomethyl-3,3-dimethyl-3,4-dihydro-acridin-1-yl)-phenol hydrochloride]  29 nM
4. COc1cccc([C@@H]2c3cc4ccccc4nc3CC[C@H]2CN(C)C)c1 (racemic) [rac-trans-[1-(3-methoxy-phenyl)-1,2,3,4-tetrahydro-acridin-2-yl-methyl]-dimethylamine hydrochloride]  127 nM
5. COc1cccc(C2=C(CN(C)C)CCc3nc4ccccc4cc32)c1 [[1-(3-methoxy-phenyl)-3,4-dihydro-acridin-2-yl-methyl]-dimethylamine hydrochloride]  133 nM
